Results as given in PMC10103840 (Frontiers in Pharmacology, 2023).
Several values for one entry are separate records, joined by “and”; a condition that tells them apart may be missing. Equal values may be shown once.

How the values were obtained:
BeWo b30 cells [1] = assay: Sodium fluorescein (NaF) exclusion assay for monolayer formation; format: in vitro ADME, human; details: day 9 after seeding, 5 μM apical, 60 min
Experimental: Measurement of transepithelial electrical resistance (TER) was used to assess the tightness of a cell-to-cell barrier, and the electrical capacitance Ccl, provided additional information about the properties of the cell layer (e.g., presence of microvilli and other membrane extrusions). TER and Ccl values were recorded in 15 min time intervals, using a cellZscope®. TER values were corrected for the surface area (Ωcm^2) and the reference resistance (well with the same filter insert and medium, but absence of cells). Moreover, a permeability assay with sodium fluorescein (NaF) was performed on days 7–11 (n = 3). The basolateral compartment of a transparent 24-well plate consisted of PBS only (1′000 μL) while NaF (5 μM in PBS; 200 μL) was added to the apical compartment for 60 min. The control consisted of cell-free inserts (n = 3). Basolateral samples (50 μL) were directly added to black Nunc MaxiSorp microtiter plates, and concentrations were determined using a Cytation 3 fluorescence microplate reader (BioTek Instruments; excitation wavelength 460 nm; emission wavelength 515 nm). […]
hyperforin, h ypericin, and valerenic acid. The compounds were spiked into PBS and then […]
to avoid interference of any stabilit y issues. […]
four independent experiments.
Supplementary Figure 3. Evaluation of monolayer formation using a sodium fluorescein […]
Control consists of a cell-free insert […]

human placental barrier = details: for Sampling (% found): amount removed by sampling during 240 min perfusion; for M perfusate (% found): maternal perfusate after 240 min
BeWo cells = details: ref Spiess et al., 2022b, cited from earlier work
[2] = System adherence test (empty perfusion chamber, maternal circuit only); format: in vitro ADME; details: % of initial concentration, 5 μM in PM, no placental tissue, 240 min, n = 3
Experimental: The dissolution and adherence of the compounds to the perfusion equipment and to the tubing system was assessed before starting perfusions with human placentae. […] The compounds were directly dissolved in PM at a final concentration of 5 μM (100 mL reservoir) and individually tested in three independent experiments (n = 3).

[3] = Stability assay in PBS, perfusion medium and placental homogenates; format: in vitro ADME, human; details: 360 min
Experimental: In short, after spiking the various matrices with the study compounds, samples were either processed immediately for U(H)PLC-MS/MS analysis (C0), or kept at 4°C/37°C on an orbital shaker (600 rpm) for 360 min before processing for U(H)PLC-MS/MS analysis. Samples were processed via solid phase extraction or protein precipitation prior to analysis.

placental tissue = assay: Histopathological evaluation of perfused placentae; design: species or system human
Experimental: Immediately after perfusion the placentae were fixed in 4% paraformaldehyde for at least 24 h. Tissue samples from representative placental tissue sections, each from perfused, non-perfused, and transitional area were prepared to perform a pathological examination. For this purpose, the tissue was embedded in paraffin, cut (∅ 2-3 µm), and stained (standard hematoxylin-eosin stain, Braun-Brenn modified Gram stain) according to the standards of routine histopathological diagnosis of the Department of Pathology and Molecular Pathology (University Hospital of Zurich). […] The blood void and width of the intervillous space and fetal blood vessels in the chorionic villi provided information about the quality of perfusion, and particular attention was paid to the presence of intravascular thrombi. General signs of degeneration, such as vacuolization of the cytotrophoblast, villous vascular endothelium viability, and formation of hydropic villous changes compared with non-perfused tissue indicated whether tissue damage might have occurred during perfusion. Microscopic effects and placental tissue damage in the perfused area were expressed in relative amounts (%) to the non-perfused tissue.

[4] = In vitro Transwell permeability assay across BeWo b30 cell layer; details: human
Experimental: (§1) BeWo b30 choriocarcinoma cells were obtained from Dr. Tina Buerki-Thurnherr (Empa, St. Gallen, Switzerland), with permission from Dr. Alan L. Schwartz (Washington University School of Medicine, St. Louis MO, USA), and were cultivated in F-12 K Nut Mix supplemented with 10% heat inactivated FBS, antibiotics (100 U/mL penicillin, 100 µg/mL […]), and 2 mM L-glutamine (all from Gibco). The cells were cultivated in a humidified incubator at 37°C and 5% CO2 atmosphere.
(§2) BeWo b30 cells were cultured on Transwell® polycarbonate membrane inserts (24-well format; 0.4 μm pore size, 0.33 cm^2 cell growth area, 200 μL apical volume, 1′000 μL basolateral volume; Corning, Sigma-Aldrich) at a density of 60′000 cells/well. These inserts were then cultivated in a cellZscope (nanoAnalytics) at 37°C/5% CO2. Cell culture medium was replaced every 2 days up to 11 days to find the best possible conditions.
(§3) BeWo b30 cells were cultured in transparent 24-well plates under the same conditions as mentioned above and transferred to the cellZscope® at day 8 to record TER and Ccl values. After 24 h (day 9) and when a TER of 30–60 Ωcm^2 was reached and Ccl was between 0.5 and 5.0 μF/cm^2, the permeability assay was initiated by adding valerenic acid (5 μM; in HBSS with 4% BSA) to the apical compartment, while the basolateral compartment contained 1′000 μL of HBSS only. […] Samples (150 μL apical, 800 μL basolateral) were collected at each time point (0, 15, 30, 60 min; one insert per time point). After 60 min, a part of the inserts was transferred back to the cellZscope® to monitor TER and Ccl values during another 24 h. The cells grown on the other part of the inserts were quickly washed with 200 μL of cold HBSS and then lysed with 700 μL acetonitrile (100 μL apical, 600 μL basolateral) for 40 min on an orbital shaker (450 rpm, room temperature) to determine the test substance cell contents.
(§4) Apparent permeability coefficients (Papp) were calculated according to the following Eq. 1: Papp cm/s=∆Q/∆t/ACA0 (1) where ΔQ/Δt is the rate of amount transported to the receiver compartment, A is the membrane surface area (0.33 cm^2), and C A0 is the initial concentration in the apical compartment.
(§5) The clearance values were calculated according to the following Eq. 2 ([Neuhaus et al., 2008]): Clearance μL=CBnVB/CA−VB/VA∙∑CBn−1 (2) where C Bn and V B are the concentration and volume in the basolateral compartment at a specific timepoint (n), respectively; C A and VA are the concentration and volume in the apical compartment, respectively, and C Bn-1 is the total amount of substance found in the basolateral compartment up to the previous timepoint (n-1).
(§6) Recovery (mass balance) of each compound was calculated according to the following Eq. 3: Recovery %=CAfVA+CBfVB+CCfVC/CA0VA∙100 (3) where C Af , C Bf and C Cf are the final compound concentrations in apical, basolateral, and cellular compartments, respectively; C A0 is the initial concentration in the apical compartment, and V A , V B and V C are the volumes in the respective compartments.
(§7) For valerenic acid, 150 µL of the IS in MeOH were added to 50 µL of sample, and the mixture centrifuged for 20 min at 13′200 rpm/16′100 rcf at 10°C (Centrifuge 5415R, Eppendorf). An aliquot (50 µL) of the supernatant was collected and transferred into HPLC vials. Vials were centrifuged for additional 20 min prior to U(H)PLC-MS/MS analysis in full loop mode (2 µL).

BeWo b30 cells [5] = assay: as above
Experimental: as §1, §2, §3, §4, §5, §6, §7

in vitro = details: human, pH 7.2
[6] = Transwell control experiments across cell-free inserts; details: semi-permeable cell-free insert, within 60 min, 5 μM
[7] = after 240 min of perfusion, 5 μM added to maternal circuit
[8] = % of amount in maternal sample at beginning
[9] = non-perfused area of same placenta

O=C([O-])c1ccccc1-c1c2ccc(=O)cc-2oc2cc([O-])ccc12.[Na+].[Na+] [NaF, sodium fluorescein]
Basolateral amount of NaF (BeWo b30 cells [1]): 2.8 % of the initial NaF concentration

CC(C)=CCC[C@]1(C)[C@@H](CC=C(C)C)C[C@]2(CC=C(C)C)C(=O)C(CC=C(C)C)=C(O)[C@@]1(C(=O)C(C)C)C2=O [Hyperforin, hyperforin]
Transplacental transfer (in words) (human placental barrier; 240 min perfusion, 5 μM maternal): little transfer to the fetal circuit
Concentration in the maternal compartment (human placental barrier; [7]): 68.6 % of initial concentration
Sampling (% found) (human placental barrier): 21.0 ± 4.5%
M perfusate (% found) (human placental barrier; [8]): 52.2 ± 21.5% and 52.2%
Concentration with increased apoptosis / apoptotic effects (BeWo cells): ≥ 3000 nM

CC1=C2[C@H](/C=C(\C)C(=O)O)CC[C@@H](C)[C@H]2CC1 [Valerenic acid, valerenic acid]
Compound lost / adhering to the perfusion equipment [2]: 5.6% and 5.6% ± 1.9%
Stability in PBS and PM [3]: approx. 100%
Global placental pathology: Else (placental tissue): Formation of artificial cavities in 10% of perfused areas and N and Singular non-occlusive thrombus in stem villus; CCB
Sharp transition perfused/non-perfused (placental tissue): Y and N
Extravasations into villous stroma (in words) (placental tissue; after perfusion): no extravasations into villous stroma
Ruptures of villous vessels (in words) (placental tissue; after perfusion): no ruptures of villous vessels
Emptiness of villous vessels in non-perfused (placental tissue; [9]): 10% and 1%
Hydropic changes in non-perfused (placental tissue; [9]): 5% and 0%
Intervillous spaces without blood in non-perfused (placental tissue; [9]): 70% and 50% and 60% and 40%
Thrombi in villous vessels: in non-perfused too? (placental tissue; [9]): 1%
Vacuolated trophoblast in villi: in non-perfused too? (placental tissue; [9]): 0% and 5%
Thrombi in vessels of stem villi (in words) (placental tissue; perfused and non-perfused): no thrombi detectable
Dilatated intervillous space (placental tissue; perfused area): 50% and 90% and 70%
Intervillous spaces without blood (placental tissue; perfused area): 95%
Emptiness of villous vessels (placental tissue; perfused area, individual experiments): 95% and 80% (2×) and 90%
recovery at 60 min, 5 μM [4]: 73.7%
Passage across the placental cell layer (in words) (BeWo b30 cells [5]; 5 μM apical, HBSS with 4% BSA, 60 min): did not cross the placental cell layer within 60 min
Papp (BeWo b30 cells [5]; apical to basolateral, BeWo b30 cell layer, 5 μM): zero
Concentration in the fetal compartment (human placental barrier; [7]): 44.0 % of initial concentration
Concentration in the maternal compartment (human placental barrier; [7]): 45.0 % of initial concentration
Sampling (% found) (human placental barrier): 24.1 ± 4.8%
F perfusate (% found) (human placental barrier; fetal perfusate after 240 min, % of amount in maternal sample at beginning): 33.1 ± 10.7% and 33.1%
FM ratio at 240 min (human placental barrier; fetal/maternal concentration ratio, 240 min, antipyrine from control perfusions): 1.01
M perfusate (% found) (human placental barrier; [8]): 34.4%
Time to equilibrium between fetal and maternal compartment (human placental barrier; perfusion profiles, antipyrine as connectivity control): 240 min
recovery at 240 min, 5 μM (in vitro): 91.5%
Concentrations not lowering viability, no increase in apoptosis or genotoxicity, no negative effect on metabolic activity and cell differentiation (BeWo cells; BeWo b30 cells): up to 30 μM
Clearance across cell-free insert [6]: 28.3 µL
